The source of these data is patent US20240317780A1, “RADIOPHARMACEUTICAL SOMATOSTATIN RECEPTOR LIGANDS AND PRECURSORS THEREOF” (Technische Universität München, priority 2021, published 2024).

The target in one data set is T1, SST2 (Homo sapiens, UniProt P30874).
T1 construct: expressed in transfected cells; host or cells: CHO (Chinese hamster ovary) cells
Nature of the data set: Determination of IC50: competitive binding against [125I]TOC on SST2-transfected CHO cells. Particulars: [125I]TOC reference radioligand, 60 min room temperature.

A short description of data set [1]: Octanol-water distribution coefficient (logD pH 7.4) of the labeled tracer. It counts as physicochemical. The conditions noted are these: n-octanol/PBS pH 7.4, room temperature. Here is the method:
Approximately 1 MBq of the labeled tracer was dissolved in 1 mL of a 1:1 mixture (by volumes) of phosphate buffered saline (PBS, pH 7.4) and n-octanol in an Eppendorf tube. After vigorous mixing of the suspension for 3 minutes at room temperature, the vial was centrifuged at 15000 g for 5 minutes (Biofuge 15, Heraus Sepatech, Osterode, Germany) and 100 μL aliquots of both layers were measured in a gamma counter. The experiment was repeated at least six times.

The nature of data set [2]: Biodistribution of 18F-labeled SST2 ligands in AR42J tumor-bearing mice. It counts as in vivo. The conditions noted are these: female, CD1 nu/nu, mouse, iv, total radioactivity, 1 h post injection, tail vein. Here is the method: All animal experiments were conducted in accordance with general animal welfare regulations in Germany and the institutional guidelines for the care and use of animals. To establish tumor xenografts, AR42J cells (5×10^6 cells/100 μL) were suspended in Dulbecco modified Eagle medium/Nutrition Mixture F-12 with Glutamax-1 (1:1) and inoculated subcutaneously onto the right shoulder of 8 weeks old, female CD1 nu/nu mice (Charles River, Sulzfeld, Germany). Mice were used for experiments when tumors had grown to a diameter of 5-9 mm (7-15 days after inoculation).
Approximately 0.5-2.0 MBq (0.05-0.25 nmol) of the ^18F-labeled SST2-ligands were injected into the tail vein of AR42J tumor-bearing female CD1 nu/nu mice and sacrificed after 1 h post injection (n=3-5). Selected organs were removed, weighted and measured in a γ-counter.
The Tables 4, 5, and 6 summarize the results of the in vivo mouse experiments. For all biodistribution studies, female CD1 nu/nu mice with AR42J tumor xenografts, were used and sacrificed 1 h post injection.

Setting [3] is: AR42J tumor, AR42J tumor, read-out: Tumor % ID/g ± SD.
The mark [4] stands for this setting: adrenal glands, read-out: Adrenal glands % ID/g ± SD.
The mark [5] stands for this setting: blood, read-out: Blood % ID/g ± SD.
[6] abbreviates: bone, read-out: Bone % ID/g ± SD.
Setting [7] is: heart, read-out: Heart % ID/g ± SD.
[8] abbreviates: intestine, read-out: Intestine % ID/g ± SD.
Setting [9] is: kidneys, read-out: Kidneys % ID/g ± SD.
Where [10] appears, read: liver, read-out: Liver % ID/g ± SD.
Setting [11] is: lung, read-out: Lung % ID/g ± SD.
The mark [12] stands for this setting: muscle, read-out: Muscle % ID/g ± SD.
[13] abbreviates: pancreas, read-out: Pancreas % ID/g ± SD.
Setting [14] is: spleen, read-out: Spleen % ID/g ± SD.
Setting [15] is: stomach, read-out: Stomach % ID/g ± SD.

In general, IC50 refers to the concentration that gives 50% inhibition. Read a low IC50 as greater potency.

Like-named read-outs stand apart in the source and are kept apart here.

T1 sequence (P30874 whole entry, species assumed): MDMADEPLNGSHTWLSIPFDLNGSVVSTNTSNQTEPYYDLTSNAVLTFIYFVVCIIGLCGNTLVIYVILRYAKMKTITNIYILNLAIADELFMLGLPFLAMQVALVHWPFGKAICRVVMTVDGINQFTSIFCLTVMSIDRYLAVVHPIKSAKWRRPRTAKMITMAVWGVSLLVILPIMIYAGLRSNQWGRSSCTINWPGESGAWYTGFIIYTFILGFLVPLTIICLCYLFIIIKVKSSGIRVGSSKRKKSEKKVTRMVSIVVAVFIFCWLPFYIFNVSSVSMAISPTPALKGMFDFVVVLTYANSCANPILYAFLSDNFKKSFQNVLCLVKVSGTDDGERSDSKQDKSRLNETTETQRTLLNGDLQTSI

On SST2, `C[C@@H](O)[C@H](NC(=O)C1CSSCC(NC(=O)C(Cc2ccccc2)NC(=O)CNC(=O)CNC(=O)[C@@H](CC(=O)O)NC(=O)C(CC(=O)O)NC(=O)[C@@H](CNC(=O)c2ccc([Si](F)(C(C)(C)C)C(C)(C)C)cc2)NC(=O)CCC(C(=O)O)N2CCN(CC(=O)O)CCN(CC(=O)O)CCN(CC(=O)O)CC2)C(=O)N[C@@H](Cc2ccc(O)cc2)C(=O)NC(Cc2c[nH]c3ccccc23)C(=O)N[C@@H](CCCCN)C(=O)N[C@@H]([C@@H](C)O)C(=O)N1)C(=O)O` (stereo partly drawn) (natGa complex, metal not drawn) [[Ga]6] displayed an IC50 of 149 ± 20.3 nM. Further, the “LogDpH=7.4” value in data set [1] is given as −2.15 ± 0.09.

For the compound `C[C@@H](O)[C@H](NC(=O)C1CSSCC(NC(=O)C(Cc2ccccc2)NC(=O)CNC(=O)CNC(=O)[C@@H](CC(=O)O)NC(=O)C(CC(=O)O)NC(=O)[C@@H](CNC(=O)c2ccc([Si](F)(C(C)(C)C)C(C)(C)C)cc2)NC(=O)CN2CCN(CC(=O)O)CCN(CC(=O)O)CCN(CC(=O)O)CC2)C(=O)N[C@@H](Cc2ccc(O)cc2)C(=O)NC(Cc2c[nH]c3ccccc23)C(=O)N[C@@H](CCCCN)C(=O)N[C@@H]([C@@H](C)O)C(=O)N1)C(=O)O` (stereo partly drawn) (natGa complex, metal not drawn) [[Ga]8], the IC50 on SST2 stood at 58.5 ± 10.8 nM. Moreover, the “LogDpH=7.4” value in data set [1] is −2.02 ± 0.04.

In the case of `C[C@@H](O)[C@H](NC(=O)C1CSSCC(NC(=O)C(Cc2ccccc2)NC(=O)CNC(=O)CNC(=O)[C@@H](CC(=O)O)NC(=O)C(CC(=O)O)NC(=O)[C@@H](CNC(=O)CN2CCN(CC(=O)O)CCN(CC(=O)O)CCN(CC(=O)O)CC2)NC(=O)c2ccc([Si](F)(C(C)(C)C)C(C)(C)C)cc2)C(=O)N[C@@H](Cc2ccc(O)cc2)C(=O)NC(Cc2c[nH]c3ccccc23)C(=O)N[C@@H](CCCCN)C(=O)N[C@@H]([C@@H](C)O)C(=O)N1)C(=O)O` (stereo partly drawn) (natGa complex, metal not drawn) [[Ga]9], the IC50 on SST2 was 63.3 ± 1.75 nM. In addition, the “LogDpH=7.4” value in data set [1] is reported as −2.02 ± 0.04.

`C[C@@H](O)[C@H](NC(=O)C1CSSCC(NC(=O)C(Cc2ccccc2)NC(=O)CNC(=O)CNC(=O)CNC(=O)C(CC(=O)O)NC(=O)[C@@H](CC(=O)O)NC(=O)C(CCCCN)NC(=O)[C@@H](CNC(=O)C[N+](C)(C)Cc2ccc([Si](F)(C(C)(C)C)C(C)(C)C)cc2)NC(=O)CN2CCN(CC(=O)O)CCN(CC(=O)O)CCN(CC(=O)O)CC2)C(=O)N[C@@H](Cc2ccc(O)cc2)C(=O)NC(Cc2c[nH]c3ccccc23)C(=O)N[C@@H](CCCCN)C(=O)N[C@@H]([C@@H](C)O)C(=O)N1)C(=O)O` (stereo partly drawn) (natGa complex, metal not drawn) [[Ga]45]: the tissue uptake at 1 h is 31.6 ± 4.96 %ID/g in data set [2] (setting [3]); 1.54 ± 0.28 %ID/g in data set [2] (setting [4]); 0.53 ± 0.23 %ID/g in data set [2] (setting [5]); 1.81 ± 0.07 %ID/g in data set [2] (setting [6]); 0.28 ± 0.04 %ID/g in data set [2] (setting [7]); 1.27 ± 0.13 %ID/g in data set [2] (setting [8]). In addition, the tissue uptake at 1 h in data set [2] (setting [9]) was 72.7 ± 7.68 %ID/g; in data set [2] (setting [10]) it was 1.28 ± 0.11 %ID/g; in data set [2] (setting [11]) it was 3.34 ± 0.49 %ID/g; in data set [2] (setting [12]), 0.11 ± 0.02 %ID/g; in data set [2] (setting [13]), 11.8 ± 1.36 %ID/g; in data set [2] (setting [14]) it was 0.56 ± 0.1 %ID/g. Besides, the tissue uptake at 1 h in data set [2] (setting [15]) amounted to 7.5 ± 0.13 %ID/g. This compound displayed an IC50 on SST2 of 4.3 ± 0.06 nM.

Turning to `C[C@@H](O)[C@H](NC(=O)C1CSSCC(NC(=O)C(Cc2ccccc2)NC(=O)CNC(=O)CNC(=O)CNC(=O)C(CC(=O)O)NC(=O)[C@@H](CC(=O)O)NC(=O)C(CCCNC(N)=O)NC(=O)[C@@H](CNC(=O)C[N+](C)(C)Cc2ccc([Si](F)(C(C)(C)C)C(C)(C)C)cc2)NC(=O)CN2CCN(CC(=O)O)CCN(CC(=O)O)CCN(CC(=O)O)CC2)C(=O)N[C@@H](Cc2ccc(O)cc2)C(=O)NC(Cc2c[nH]c3ccccc23)C(=O)N[C@@H](CCCCN)C(=O)N[C@@H]([C@@H](C)O)C(=O)N1)C(=O)O` (stereo partly drawn) (natGa complex, metal not drawn) [[Ga]46], the tissue uptake at 1 h in data set [2] (setting [3]) turned out to be 23.4 ± 1.07 %ID/g; in data set [2] (setting [4]), 1.71 ± 0.38 %ID/g; in data set [2] (setting [5]), 0.57 ± 0.24 %ID/g; in data set [2] (setting [6]) it was 1.21 ± 0.24 %ID/g; in data set [2] (setting [7]), 0.3 ± 0.04 %ID/g; in data set [2] (setting [8]), 1.43 ± 0.35 %ID/g. Also, the tissue uptake at 1 h is 12.6 ± 1.58 %ID/g in data set [2] (setting [9]); 0.83 ± 0.14 %ID/g in data set [2] (setting [10]); 3.22 ± 0.53 %ID/g in data set [2] (setting [11]); 0.1 ± 0.02 %ID/g in data set [2] (setting [12]); 11.1 ± 2.61 %ID/g in data set [2] (setting [13]); 0.57 ± 0.14 %ID/g in data set [2] (setting [14]). In addition, in data set [2] (setting [15]), the tissue uptake at 1 h turned out to be 6.51 ± 1.64 %ID/g. The compound further displayed an IC50 at SST2 of 4.79 ± 0.84 nM.

Turning to `C[C@@H](O)[C@H](NC(=O)C1CSSCC(NC(=O)C(Cc2ccccc2)NC(=O)CNC(=O)CNC(=O)CNC(=O)C(CC(=O)O)NC(=O)[C@@H](CC(=O)O)NC(=O)C(CNC(=O)CN2CCN(CC(=O)O)CCN(CC(=O)O)CCN(CC(=O)O)CC2)NC(=O)C[N+](C)(C)Cc2ccc([Si](F)(C(C)(C)C)C(C)(C)C)cc2)C(=O)N[C@@H](Cc2ccc(O)cc2)C(=O)NC(Cc2c[nH]c3ccccc23)C(=O)N[C@@H](CCCCN)C(=O)N[C@@H]([C@@H](C)O)C(=O)N1)C(=O)O` (stereo partly drawn) (natGa complex, metal not drawn) [[Ga]50], the tissue uptake at 1 h in data set [2] (setting [3]) was 31.8 ± 2.49 %ID/g; in data set [2] (setting [4]) it was 2.39 ± 0.53 %ID/g; in data set [2] (setting [5]) it was 0.5 ± 0.21 %ID/g; in data set [2] (setting [6]), 1.23 ± 0.41 %ID/g; in data set [2] (setting [7]), 0.27 ± 0.03 %ID/g; in data set [2] (setting [8]) it was 1.84 ± 0.45 %ID/g. Further, the tissue uptake at 1 h in data set [2] (setting [9]) is 12.3 ± 3.4 %ID/g; in data set [2] (setting [10]) it was 1.22 ± 0.18 %ID/g; in data set [2] (setting [11]), 3.73 ± 0.57 %ID/g; in data set [2] (setting [12]), 0.1 ± 0.03 %ID/g; in data set [2] (setting [13]) it was 17.3 ± 2.87 %ID/g; in data set [2] (setting [14]), 0.55 ± 0.06 %ID/g. In addition, the tissue uptake at 1 h in data set [2] (setting [15]) was found to be 9.54 ± 1.83 %ID/g. The IC50 at SST2 came to 3.01 ± 0.03 nM.

On SST2, `CC(O)C(NC(=O)C1CSSCC(NC(=O)C(Cc2ccccc2)NC(=O)CNC(=O)CNC(=O)CNC(=O)[C@@H](CCCN)NC(=O)[C@@H](CCCN)NC(=O)C(CNC(=O)CN2CCN(CC(=O)O)CCN(CC(=O)O)CCN(CC(=O)O)CC2)NC(=O)C[N+](C)(C)Cc2ccc([Si](F)(C(C)(C)C)C(C)(C)C)cc2)C(=O)N[C@@H](Cc2ccc(O)cc2)C(=O)NC(Cc2c[nH]c3ccccc23)C(=O)N[C@@H](CCCCN)C(=O)N[C@@H]([C@@H](C)O)C(=O)N1)C(=O)O` (stereo partly drawn) (natGa complex, metal not drawn) [[Ga]55] returned an IC50 of 4.1 ± 0.54 nM. Moreover, in data set [1], the “LogDpH=7.4” value is reported as −1.69 ± 0.04.

Compound `CC(O)C(NC(=O)C1CSSCC(NC(=O)C(Cc2ccccc2)NC(=O)CNC(=O)CNC(=O)CNC(=O)C(CC(N)=O)NC(=O)[C@@H](CC(N)=O)NC(=O)C(CNC(=O)CN2CCN(CC(=O)O)CCN(CC(=O)O)CCN(CC(=O)O)CC2)NC(=O)C[N+](C)(C)Cc2ccc([Si](F)(C(C)(C)C)C(C)(C)C)cc2)C(=O)N[C@@H](Cc2ccc(O)cc2)C(=O)NC(Cc2c[nH]c3ccccc23)C(=O)N[C@@H](CCCCN)C(=O)N[C@@H]([C@@H](C)O)C(=O)N1)C(=O)O` (stereo partly drawn) (natGa complex, metal not drawn) [[Ga]56] displayed an IC50 on SST2 of 4 ± 0.34 nM. Further, in data set [1], the “LogDpH=7.4” value is given as −1.51 ± 0.03.

For the compound `C[C@@H](O)[C@H](NC(=O)C1CSSCC(NC(=O)C(Cc2ccccc2)NC(=O)CNC(=O)CNC(=O)CNC(=O)C(CC(=O)O)NC(=O)[C@@H](CC(=O)O)NC(=O)C(CCCCN)NC(=O)[C@@H](CNC(=O)CN2CCN(CC(=O)O)CCN(CC(=O)O)CCN(CC(=O)O)CC2)NC(=O)C[N+](C)(C)Cc2ccc([Si](F)(C(C)(C)C)C(C)(C)C)cc2)C(=O)N[C@@H](Cc2ccc(O)cc2)C(=O)NC(Cc2c[nH]c3ccccc23)C(=O)N[C@@H](CCCCN)C(=O)N[C@@H]([C@@H](C)O)C(=O)N1)C(=O)O` (stereo partly drawn) (natGa complex, metal not drawn) [[Ga]57], at SST2, the IC50 was determined as 4.74 ± 0.22 nM. For the same compound, in data set [1], the “LogDpH=7.4” value was −2.25 ± 0.14.
